Laboratory results taken from patent US9637787B2, “Culture based screening assay and methods of use thereof to identify agents which modulate tumor development, invasion and differentiation” (The Trustees of the University of Pennsylvania, priority 2007, dated 2017).

What was measured:
periostin = assay: Western blot of periostin expression in cell lysates; type: cell-based, human; conditions: EPC2-hTERT-EGFR-p53^R175H cells, 24 h treatment; EGF 10 ng/μl, AG1478 1 μM, 5-iminodaunorubicin 3 μM
Protocol: FIG. 24: Periostin expression is dependent upon EGFR signaling and mutant p53 activation (A) Western blot analysis of periostin (90 kDa) in EPC2-hTERT-EGFR-p53^R175H, EPC2-hTERT-puro-neo, EPC2-hTERT-EGFR-neo and EPC2-hTERT-neo-p53^R175H cells. (B) Western blot analysis of periostin expression in EPC2-hTERT-EGFR-p53^R175H cell lysates after 24 h treatment with EGF (10 ng/μl), EGFR inhibitor AG1478 (1 μM) and 5-iminodaunorubicin (3 μM). Immunoblotting for total EGFR and phosphorylated EGFR to confirm inhibition of EGFR as well as p21 to indicate restoration of wildtype p53 signaling. β-actin was used as a loading control. Densitometry ratios of periostin/β-actin were calculated and recorded.
(§1) For Western blot analysis, cells were lysed in lysis buffer (10 mM Tris-HCl, pH 7.4, 150 mM NaCl, 1% Nonidet P-40, 0.1% sodium deoxycholate, 0.1% SDS, 1 mM EDTA, 2 mM sodium orthovanadate and a protease inhibitor tablet, Roche Molecular Biochemicals, Indianapolis, Ind.). Protein concentration was determined by the Bio-Rad protein assay (Bio-Rad, Hercules, Calif.). 15 μg of protein were run on a 4-12% SDS-PAGE gel (Invitrogen™) and transferred to a polyvinylidene difluoride membrane (Immobilon-P®, Millipore, Bedford, Mass.). Membranes were blocked in 5% nonfat milk (Bio-Rad) in TBS-T (10 mM Tris, 150 mM NaCl, pH 8.0 and 0.1% Tween® 20) for 1 h at room temperature. Membranes were then probed with primary antibody diluted in 5% milk in TBS-T overnight at 4° C., washed with TBS-T and incubated with anti-mouse or anti-rabbit horseradish peroxidase-conjugated secondary antibodies (GE Biotech, 1:3000 in TBS-T) for 1 h at room temperature and washed in TBS-T. The signal was visualized using an enhanced chemiluminescence solution (ECL Plus, Amersham™ Pharmacia Biotech) and exposed to Blue Lite Autorad film (ISC-BioExpress, Kaysville, Utah). To confirm secreted periostin expression, conditioned media was collected and protein concentration was determined by Bio-Rad protein assay (Bio-Rad) and Western blot analysis was performed as described above.

Met = Met phosphorylation in EPC-hTERT-EGFR-p53^R175H cells; type: cell-based, human; conditions: data not shown
Protocol: as §1

MMP-1 = molecular target: T1, MMP-1 (Homo sapiens, UniProt P03956); conditions: cited from earlier work
T1 sequence (P03956 100-469): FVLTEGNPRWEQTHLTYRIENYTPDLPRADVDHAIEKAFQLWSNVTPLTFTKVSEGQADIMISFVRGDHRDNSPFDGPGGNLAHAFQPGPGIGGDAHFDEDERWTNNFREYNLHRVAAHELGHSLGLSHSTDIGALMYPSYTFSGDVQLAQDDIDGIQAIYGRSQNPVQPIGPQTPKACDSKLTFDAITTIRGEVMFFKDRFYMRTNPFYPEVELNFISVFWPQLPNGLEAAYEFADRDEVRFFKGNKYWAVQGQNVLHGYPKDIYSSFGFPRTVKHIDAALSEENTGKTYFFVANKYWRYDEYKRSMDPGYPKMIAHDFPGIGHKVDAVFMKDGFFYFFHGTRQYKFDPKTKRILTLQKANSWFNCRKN

[1] = system: EPC-hTERT-EGFR-p53^R175H cells; assay: matrix invasion in 3D organotypic culture above FEF3 fetal esophageal fibroblast matrices; type: cell-based, human; conditions: 100 nM
Protocol: (§2) (A) Fluorescence measurements representing invading cells on the bottom filters of a Matrigel®-coated Boyden chamber where HGF was added as the chemoattractant of EPC-hTERT-EGFR-p53^R175H cells seeded atop the filter. (B) Level of secreted HGF in conditioned media from FEF3 fibroblasts±HGF siRNA set up in organotypic culture and detected by ELISA. (C) H&E sections of organotypic cultures of FEF3 fibroblasts±HGF siRNA seeded into the matrix with EPC-hTERT-EGFR-p53^R175H grown above (scale bar=100 μm). (D) Quantification of invasion in entire organotypic culture imaged in (C). Error bars represent ±SEM and * indicates p values ≦0.05 when compared to the control.
(A) Western blot of EPC-hTERT-EGFR-p53^R175HshMet or EPC-hTERT-EGFR-p53^R175H shScramble cells (two independent lines of each genotype) to determine extent of Met knockdown of total protein and activation state. (B) H&E sections of organotypic culture of EPC-hTERT-EGFR-p53^R175H-shMet or EPC-hTERT-EGFRp53^R175H-shScramble cells seeded above matrices containing FEF3 fetal esophageal fibroblasts. (C) H&E sections of organotypic cultures of EPC-hTERT-EGFR-p53^R175H cells seeded above FEF3 matrices treated with DMSO vehicle (days 7-15) or 100 nM PHA665752 (days 7-15 or day 11-15) as indicated. […]

[2] = system: EPC-hTERT-EGFR-p53^R175H cells; assay: Matrigel-coated Boyden chamber invasion assay with chemoattractant; type: cell-based, human; conditions: HGF added as chemoattractant
Protocol: as §2
For migration assays, Boyden chambers (8 μm pore size, FluoroBlok-HTS inserts, BD Biosciences) were used. For invasion assays, insert-plates (8 μm pore size, FluoroBlock, 24 well insert) coated with BD Matrigel® matrix were used. Inserts were placed in a 24-well plate containing Full KSFM medium with serum to stimulate cell migration and invasion. 5×10^4 cells in serum-free medium were placed in each insert. Twenty-four hours later, migrating or invading cells were labeled with 4 μg/ml Calcein AM dye (Invitrogen™) in HANKS buffer for 1 hour. The labeled cells were then read on a Synergy HT multi-detection microplate reader (BIOTEK®, Woburn, Mass.) at 485 nm excitation and 528 nm detection. […]

Molecule: COc1cccc2c1C(=N)c1c(O)c3c(c(O)c1C2=O)C[C@@](O)(C(C)=O)C[C@@H]3O[C@H]1C[C@H](N)[C@H](O)[C@H](C)O1 [5-iminodaunorubicin]
- periostin protein expression (periostin): decreased

Molecule: COc1cc2ncnc(Nc3cccc(Cl)c3)c2cc1OC [AG1478]
- Met phosphorylation (Met): nor was Met phosphorylation inhibited
- periostin protein expression (periostin): decreased

Molecule: CCN(CC)Cc1cc(C)c(N(Cc2ccccc2)S(=O)(=O)c2ccc(OC)cc2)c(C(=O)NO)c1 [MMP-9 inhibitor]
- IC50 (MMP-1): 1050 nM

Molecule: Cc1[nH]c(/C=C2\C(=O)Nc3ccc(S(=O)(=O)Cc4c(Cl)cccc4Cl)cc32)c(C)c1C(=O)N1CCC[C@@H]1CN1CCCC1 [PHA665752]
- invasion of EPC-hTERT-EGFR-p53^R175H cells in organotypic culture ([1]; treated for seven days following epithelial cell seeding (days 7-15)): inhibited invasion
- invasion of EPC-hTERT-EGFR-p53^R175H cells in organotypic culture ([1]; treated for the final four days when invasion occurs (day 11-15)): inhibited invasion

Molecule: EGF: epidermal growth factor used to stimulate EGFR
- periostin protein expression (periostin): increased periostin protein expression

Molecule: HGF: Recombinant human HGF purchased from R&D Systems
- levels of invading cells [2]: significantly increased levels of invading
